Test results from PMC8284461, “Piperidine-4-Carboxamides Target DNA Gyrase in Mycobacterium abscessus” (Antimicrobial Agents and Chemotherapy, 2021).
Values after ≈ are worked out from the molar mass of the structure shown.

Tests used:
[1] = system: M. abscessus subsp. abscessus ATCC 19977 MXF^r-2 (GyrA D96N); assay: MIC, resistant mutant; type: cell-based, Mycobacterium abscessus; settings: Mycobacteroides abscessus, ATCC19977
[2] = system: M. abscessus subsp. abscessus ATCC 19977 MXF^r-1 (GyrA D96Y); assay: MIC, resistant mutant; type: cell-based, Mycobacterium abscessus; settings: Mycobacteroides abscessus, ATCC19977
[3] = system: M. abscessus subsp. abscessus ATCC 19977 MXF^r-3 (GyrA D96G); assay: MIC, resistant mutant; type: cell-based, Mycobacterium abscessus; settings: Mycobacteroides abscessus, ATCC19977
[4] = system: M. abscessus subsp. abscessus Bamboo 844^r-2 (GyrA D91N); assay: MIC, resistant mutant; type: cell-based, Mycobacterium abscessus; settings: Mycobacteroides abscessus
[5] = system: M. abscessus subsp. bolletii CCUG 50184T; assay: MIC, broth microdilution; type: cell-based, Mycobacterium abscessus; settings: Mycobacteroides abscessus, 72 h, 90% growth inhibition, 3 days
Method: (§1) MIC was determined using the broth microdilution method in 96-well plates as described previously ([47]). Briefly, a 10-point 2-fold serial dilution of compounds was performed in 96-well plates (Costar 3370; Corning, USA) starting at twice the desired highest concentration. […] One hundred microliters of the bacterial suspension was seeded onto the 96-well plates containing 100 μl of the serially diluted compounds to give a final volume of 200 μl in each well with the final OD600 of 0.005. The plates were sealed with parafilm, placed onto wet paper towels in a lock-lock box and incubated for 3 days at 37°C with orbital shaking at 90 rpm. […] Absorbance values at day 3 were subtracted from the day 0 readout. Percent growth inhibition was calculated by dividing the absolute absorbance value of treated cells with untreated control and multiplying by 100. CLR was included in all MIC experiments as a positive control to monitor assay reproducibility. MIC was defined as 90% of growth inhibition relative to untreated controls.

[6] = system: M. abscessus subsp. abscessus M404; assay: MIC, broth microdilution; type: cell-based, Mycobacterium abscessus; settings: Mycobacteroides abscessus, 72 h, 90% growth inhibition, 3 days
Method: as §1

[7] = system: M. abscessus subsp. bolletii M232; assay: MIC, broth microdilution; type: cell-based, Mycobacterium abscessus; settings: Mycobacteroides abscessus, 72 h, 90% growth inhibition, 3 days
Method: as §1

[8] = system: M. abscessus subsp. abscessus K21; assay: MIC, broth microdilution; type: cell-based, Mycobacterium abscessus; settings: Mycobacteroides abscessus, 72 h, 90% growth inhibition, 3 days
Method: as §1

[9] = system: M. abscessus subsp. massiliense CCUG 48898T; assay: MIC, broth microdilution; type: cell-based, Mycobacterium abscessus; settings: Mycobacteroides abscessus, 72 h, 90% growth inhibition, 3 days
Method: as §1

[10] = system: M. abscessus subsp. abscessus Bamboo; assay: MIC, broth microdilution; type: cell-based, Mycobacterium abscessus; settings: abscessus Bamboo wild type, 90% growth inhibition, 3 days
Method: as §1

[11] = system: M. abscessus subsp. massiliense M111; assay: MIC, broth microdilution; type: cell-based, Mycobacterium abscessus; settings: Mycobacteroides abscessus, 72 h, 90% growth inhibition, 3 days
Method: as §1

[12] = system: M. abscessus subsp. abscessus ATCC 19977; assay: MIC, broth microdilution; type: cell-based, Mycobacterium abscessus; settings: abscessus ATCC 19977 wild type, 90% growth inhibition, 3 days
Method: as §1

[13] = system: M. abscessus subsp. abscessus M337; assay: MIC, broth microdilution; type: cell-based, Mycobacterium abscessus; settings: Mycobacteroides abscessus, 72 h, 90% growth inhibition, 3 days
Method: as §1

[14] = system: M. abscessus subsp. abscessus M9; assay: MIC, broth microdilution; type: cell-based, Mycobacterium abscessus; settings: Mycobacteroides abscessus, 72 h, 90% growth inhibition, 3 days
Method: as §1

[15] = system: M. abscessus subsp. abscessus M421; assay: MIC, broth microdilution; type: cell-based, Mycobacterium abscessus; settings: Mycobacteroides abscessus, 72 h, 90% growth inhibition, 3 days
Method: as §1

[16] = system: M. abscessus subsp. abscessus M199; assay: MIC, broth microdilution; type: cell-based, Mycobacterium abscessus; settings: Mycobacteroides abscessus, 72 h, 90% growth inhibition, 3 days
Method: as §1

[17] = system: M. abscessus subsp. bolletii M506; assay: MIC, broth microdilution; type: cell-based, Mycobacterium abscessus; settings: Mycobacteroides abscessus, 72 h, 90% growth inhibition, 3 days
Method: as §1

[18] = system: M. abscessus subsp. abscessus ATCC 19977; assay: Time-concentration kill assay, planktonic cultures; type: cell-based, Mycobacterium abscessus; settings: 1×, 4×, 8× MIC; CFU after 2 and 3 days
Method: At 0, 2, and 3 days, tubes were vortexed, and 20 μl of the cultures was transferred to round-bottom 96-well plates containing 180 μl of phosphate-buffered saline (PBS) (10010023; Thermo Fisher, USA) with 0.025% Tween 80 (PBS/Tween 80) for 10-fold serial dilution. To prevent compound carryover effects, we plated out serially diluted samples onto 7H10 agar supplemented with 0.4% activated charcoal (C9154; Sigma-Aldrich, USA) for all time points as described ([48]). CFU were enumerated after 4 days of incubation at 37°C.

[19] = system: M. abscessus complex strains; assay: MIC across reference strains and clinical isolates; type: cell-based, Mycobacterium abscessus; settings: Mycobacteroides abscessus; reference strains and clinical isolates of Table 1; read-out: MICs ranging across the M. abscessus complex strains
Method: as §1

[20] = system: M. abscessus subsp. abscessus ATCC 19977 biofilm; assay: Antibiofilm activity, MBEC biofilm assay; type: cell-based, Mycobacterium abscessus; settings: 1×, 4×, 8× MIC; surface-attached CFU after 2 and 3 days
Method: The antibiofilm activity of 844 and 844-TMF was determined employing the MBEC 96-well Biofilm assay kit (19111; Innovotech, Edmonton, AB, Canada) as described previously ([15]) with minor modifications. Briefly, exponentially growing M. abscessus subsp. abscessus ATCC 19977 cultures were spun down at 3,200 × g for 10 min and washed with 7H9 broth without Tween 80 (‘7H9’). Bacteria were resuspended in ‘7H9’ to an OD600 of 0.0125, and 150 μl was dispensed into the wells of Innovotech 96-well plates. Pegs (protruding from the specialized lids of the Innovotech multiwell plates) were inserted into the bacterial suspensions in the wells, and the cultures were grown 24 h with shaking at 110 rpm at 37°C to allow attachment and growth of the bacteria on the surface of the pegs. […] Biofilm growth on the pegs was measured by CFU determination. The pegs were washed in 200 μl ‘7H9’ medium, removed, and placed in 1.7-ml microcentrifuge tubes (87003-294; VWR, Radnor, PA, USA) containing 500 μl PBS/Tween 80 (0.025%). The tubes were vortexed at 2,000 rpm for 90 s to detach and suspend the bacteria from the pegs before samples were serially diluted and plated onto 7H10 agar supplemented with 0.4% activated charcoal to determine CFU/peg.

[21] = system: M. abscessus subsp. abscessus Bamboo 844^r-3 (GyrB S473W); assay: MIC, resistant mutant; type: cell-based, Mycobacterium abscessus; settings: Mycobacteroides abscessus
[22] = system: M. abscessus subsp. abscessus Bamboo; assay: Selection and characterization of spontaneous resistant mutants; type: cell-based, Mycobacterium abscessus; settings: agar with 8× MIC
[23] = biological target: GyrA D91N mutant recombinant M. abscessus DNA gyrase (Mycobacteroides abscessus, UniProt B1ME45+B1ME58, D91N); type: biochemical, Mycobacterium abscessus
GyrA D91N mutant recombinant M. abscessus DNA gyrase, sequence (B1ME58 2-839, stated change not applied): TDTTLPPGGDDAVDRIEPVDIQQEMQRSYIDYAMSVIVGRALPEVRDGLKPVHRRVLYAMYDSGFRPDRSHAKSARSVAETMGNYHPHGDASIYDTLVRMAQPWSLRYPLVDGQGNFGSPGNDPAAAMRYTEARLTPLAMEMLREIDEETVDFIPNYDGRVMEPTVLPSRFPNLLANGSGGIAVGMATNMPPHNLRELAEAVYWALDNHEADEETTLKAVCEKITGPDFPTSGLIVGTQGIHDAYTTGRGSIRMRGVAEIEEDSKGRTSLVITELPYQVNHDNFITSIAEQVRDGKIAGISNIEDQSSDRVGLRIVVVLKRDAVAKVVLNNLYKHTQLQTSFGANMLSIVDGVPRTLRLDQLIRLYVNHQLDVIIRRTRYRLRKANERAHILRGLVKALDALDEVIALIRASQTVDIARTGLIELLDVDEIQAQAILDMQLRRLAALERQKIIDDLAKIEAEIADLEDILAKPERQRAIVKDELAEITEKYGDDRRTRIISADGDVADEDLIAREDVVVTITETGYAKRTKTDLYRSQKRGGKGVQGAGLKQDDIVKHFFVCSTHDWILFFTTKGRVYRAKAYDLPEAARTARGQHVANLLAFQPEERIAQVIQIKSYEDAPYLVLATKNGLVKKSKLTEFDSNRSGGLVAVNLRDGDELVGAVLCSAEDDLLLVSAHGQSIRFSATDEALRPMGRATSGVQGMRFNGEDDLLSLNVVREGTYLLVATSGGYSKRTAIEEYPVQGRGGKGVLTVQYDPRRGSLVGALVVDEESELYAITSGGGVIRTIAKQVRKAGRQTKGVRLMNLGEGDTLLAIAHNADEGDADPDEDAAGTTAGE
GyrA D91N mutant recombinant M. abscessus DNA gyrase, sequence (B1ME45 2-675, stated change not applied): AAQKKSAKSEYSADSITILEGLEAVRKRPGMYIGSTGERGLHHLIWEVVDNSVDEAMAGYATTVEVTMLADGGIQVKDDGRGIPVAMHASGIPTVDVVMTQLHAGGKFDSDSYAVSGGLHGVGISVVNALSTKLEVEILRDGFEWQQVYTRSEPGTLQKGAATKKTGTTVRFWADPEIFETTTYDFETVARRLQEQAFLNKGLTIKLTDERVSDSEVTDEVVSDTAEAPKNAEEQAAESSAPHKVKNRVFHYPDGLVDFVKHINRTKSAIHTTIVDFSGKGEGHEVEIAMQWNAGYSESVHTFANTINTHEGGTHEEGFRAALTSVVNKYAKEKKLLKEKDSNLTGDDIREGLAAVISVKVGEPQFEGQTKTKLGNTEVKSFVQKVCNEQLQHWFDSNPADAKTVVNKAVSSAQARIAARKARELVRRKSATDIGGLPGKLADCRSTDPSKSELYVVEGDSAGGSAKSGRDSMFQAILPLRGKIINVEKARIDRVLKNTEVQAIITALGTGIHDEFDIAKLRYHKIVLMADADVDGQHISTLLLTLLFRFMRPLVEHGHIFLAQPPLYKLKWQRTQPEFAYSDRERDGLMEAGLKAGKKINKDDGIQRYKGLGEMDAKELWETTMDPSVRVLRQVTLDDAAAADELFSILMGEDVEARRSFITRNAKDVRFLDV

[24] = system: M. abscessus subsp. abscessus ATCC 19977 844-TMF^r-4 (GyrB M474I); assay: MIC, resistant mutant; type: cell-based, Mycobacterium abscessus; settings: Mycobacteroides abscessus, ATCC19977
[25] = biological target: recombinant M. abscessus wild-type DNA gyrase (Mycobacteroides abscessus, UniProt B1ME45+B1ME58); assay: biochemical; design: species or system Mycobacterium abscessus; settings: wild-type DNA gyrase; for IC50: relaxed pBR322 substrate, read-out: IC50, supercoiling activity
recombinant M. abscessus wild-type DNA gyrase, sequence (B1ME58 entry or part of it): as the sequence (B1ME58 2-839, stated change not applied) above
recombinant M. abscessus wild-type DNA gyrase, sequence (B1ME45 entry or part of it): as the sequence (B1ME45 2-675, stated change not applied) above

[26] = system: P4C-resistant M. abscessus strains; assay: Cross-resistance, MICs for P4C-resistant strains; type: cell-based, Mycobacterium abscessus; settings: P4C-resistant strains of Table 2
[27] = Mycobacteroides abscessus, 72 h
[28] = Mycobacteroides abscessus, ATCC19977, 72 h

Row | SMILES | MIC [1] [µM] | MIC [2] [µM] | MIC [3] [µM] | MIC [4] [µM] | MIC [5] [µM] | MIC [6] [µM] | MIC [7] [µM] | MIC [8] [µM] | MIC [9] [µM] | MIC [10, 27] [µM] | MIC [11] [µM] | MIC [12, 28] [µM] | MIC [13] [µM] | MIC [14] [µM] | MIC [15] [µM] | MIC [16] [µM] | MIC [17] [µM] | MIC [21] [µM] | MIC [24] [µM] | IC50 [25] [µM] | also measured
1 | COc1ccc2nccc(NC(=O)C3CCN(CCc4ccc(Cl)cc4)CC3)c2n1 [compound 844] | 15 (≈ 6.37 µg/mL) | 40 (≈ 17 µg/mL) | 15 (≈ 6.37 µg/mL) | > 100 | 14 (≈ 5.95 µg/mL) | 6.3 (≈ 2.68 µg/mL) | 6.3 (≈ 2.68 µg/mL) | 14 (≈ 5.95 µg/mL) | 14 (≈ 5.95 µg/mL) | 12 (≈ 5.1 µg/mL) | 12.5 (≈ 5.31 µg/mL) | 8 (≈ 3.4 µg/mL) | 6.3 (≈ 2.68 µg/mL) | 6.3 (≈ 2.68 µg/mL) | 6.3 (≈ 2.68 µg/mL) | 6.3 (≈ 2.68 µg/mL) | 6.3 (≈ 2.68 µg/mL) | 90 (≈ 38.2 µg/mL) | 40 (≈ 17 µg/mL) | 4.6 | MIC [10]: 12 µM (≈ 5.1 µg/mL); MIC [12]: 8 µM (≈ 3.4 µg/mL); bactericidal activity in planktonic cultures [18]: bactericidal; MIC [19]: 6 to 14 µM (≈ 2.55 to 5.95 µg/mL); bactericidal activity against M. abscessus grown as biofilm [20]: bactericidal; frequency of spontaneous resistance [22]: 10^−8 /CFU; effect on supercoiling activity ([23]; GyrA D91N mutant DNA gyrase, up to 50 μM): No inhibition
2 | CCNC(=O)Nc1nc2cc(-c3cnc(C(C)(C)O)nc3)c(F)c([C@H]3CCCO3)c2[nH]1 [SPR719] | 0.2 (≈ 0.0857 µg/mL) | 0.8 (≈ 0.343 µg/mL) | 0.3 (≈ 0.129 µg/mL) | 0.1 (≈ 0.0428 µg/mL) | 1.5 (≈ 0.643 µg/mL) | 1.5 (≈ 0.643 µg/mL) | 1.5 (≈ 0.643 µg/mL) | 1.5 (≈ 0.643 µg/mL) | 3 (≈ 1.29 µg/mL) | 0.8 (≈ 0.343 µg/mL) | 6.3 (≈ 2.7 µg/mL) | 0.6 (≈ 0.257 µg/mL) | 0.8 (≈ 0.343 µg/mL) | 1.5 (≈ 0.643 µg/mL) | 0.8 (≈ 0.343 µg/mL) | 1.5 (≈ 0.643 µg/mL) | 1.5 (≈ 0.643 µg/mL) | 0.05 (≈ 0.0214 µg/mL) | 0.3 (≈ 0.129 µg/mL) | 2.3 | IC50, supercoiling activity [23]: same IC50 as the wild-type enzyme; cross-resistance caused by P4C resistance mutations [26]: did not cause cross-resistance; effect on supercoiling activity ([25]; up to 50 μM): inhibited supercoiling activity
